The target in one experiment is T1, phosphorylated c-MET (Homo sapiens, UniProt P08581).
T1 construct: endogenous in cells; host or cells: MKN45
The experiment can be described thus: c-MET cell mechanistic assay (phosphorylated c-MET in MKN45 cells). It is filed as cell-based. As to conditions: MKN45 cell line, four hours incubation, phosphorylated c-MET levels, at least duplicate experiments; read-out: Met mech IC50. In outline: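 MKN45 cells were treated 4 h at 37 °C with a 6-point dilution series (typically 10 μM to 3 nM; final 0.5% DMSO). Phospho-c-MET (pY1230/1234/1235) in lysates was measured by capture ELISA with HRP read-out at 450 nm. IC50 came from a four-parameter fit of percent of DMSO control.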

A further experiment deals with MKN45 cells. Description: MKN45 cell proliferation assay (CellTiter-Glo). Format: cell-based. As to conditions: Homo sapiens, MKN-45, 72 h, MKN45 cell line, 3 days incubation, at least duplicate experiments, read-out: Prolif. IC50. On the procedure:
The effect of inhibitors on the proliferation of MKN45 cells was determined using the following protocol. MKN45 cells were plated in Corning 3917 96-well white tissue culture treated plates in growth medium (RPMI, 10% FCS) at a density of 5000 cells/well in a total volume of 135 μL and incubated at 37° C., 5% CO2, 95% humidity overnight. The following day, one-tenth volume of a 10× concentration of compounds was added to the wells in an 8-point dilution series. The dilution series was composed of an initial 1:5 dilution of a 10 mM stock of compound in DMSO, followed by serial 1:4 dilutions in DMSO, then a 1:20 dilution in growth medium prior to the 1:10 dilution into the cell plate. Final DMSO concentration on the cells was 0.1%, there were control wells treated with both 0.1% DMSO and no DMSO. The typical dilution range is 10 μM to 0.6 nM. Once the compound was added to the cells, plates were incubated for 3 days at 37° C., 5% CO2 at 95% humidity. On the third day, after allowing all cells and reagents to come to room temperature, 25 μL of CellTiter-Glo reagent (Promega # G7573) was added to the wells. Plates were shaken on a platform for 10 minutes prior to reading luminescence for 0.1 seconds. The signal of the control wells was taken as 100% growth and growth inhibition was expressed as percent of control. IC50 values were determined from the percent of control data using a standard four-parameter model.
The IC50 values of exemplary compounds of the present invention determined in a cell proliferation assay using the MKN45 cell line according to the procedures described herein in at least duplicate experiments are abbreviated as follows and are shown in Table 2: A, IC50≦0.1 μM; B, 0.1 μM<IC50≦1 μM; C, 1 μM<IC50≦10 μM; D, IC50>10 μM; ND, not determined. The Example # of Table 2 corresponds to the compound example number as illustrated in the Examples section.

T1 sequence (P08581 25-1390): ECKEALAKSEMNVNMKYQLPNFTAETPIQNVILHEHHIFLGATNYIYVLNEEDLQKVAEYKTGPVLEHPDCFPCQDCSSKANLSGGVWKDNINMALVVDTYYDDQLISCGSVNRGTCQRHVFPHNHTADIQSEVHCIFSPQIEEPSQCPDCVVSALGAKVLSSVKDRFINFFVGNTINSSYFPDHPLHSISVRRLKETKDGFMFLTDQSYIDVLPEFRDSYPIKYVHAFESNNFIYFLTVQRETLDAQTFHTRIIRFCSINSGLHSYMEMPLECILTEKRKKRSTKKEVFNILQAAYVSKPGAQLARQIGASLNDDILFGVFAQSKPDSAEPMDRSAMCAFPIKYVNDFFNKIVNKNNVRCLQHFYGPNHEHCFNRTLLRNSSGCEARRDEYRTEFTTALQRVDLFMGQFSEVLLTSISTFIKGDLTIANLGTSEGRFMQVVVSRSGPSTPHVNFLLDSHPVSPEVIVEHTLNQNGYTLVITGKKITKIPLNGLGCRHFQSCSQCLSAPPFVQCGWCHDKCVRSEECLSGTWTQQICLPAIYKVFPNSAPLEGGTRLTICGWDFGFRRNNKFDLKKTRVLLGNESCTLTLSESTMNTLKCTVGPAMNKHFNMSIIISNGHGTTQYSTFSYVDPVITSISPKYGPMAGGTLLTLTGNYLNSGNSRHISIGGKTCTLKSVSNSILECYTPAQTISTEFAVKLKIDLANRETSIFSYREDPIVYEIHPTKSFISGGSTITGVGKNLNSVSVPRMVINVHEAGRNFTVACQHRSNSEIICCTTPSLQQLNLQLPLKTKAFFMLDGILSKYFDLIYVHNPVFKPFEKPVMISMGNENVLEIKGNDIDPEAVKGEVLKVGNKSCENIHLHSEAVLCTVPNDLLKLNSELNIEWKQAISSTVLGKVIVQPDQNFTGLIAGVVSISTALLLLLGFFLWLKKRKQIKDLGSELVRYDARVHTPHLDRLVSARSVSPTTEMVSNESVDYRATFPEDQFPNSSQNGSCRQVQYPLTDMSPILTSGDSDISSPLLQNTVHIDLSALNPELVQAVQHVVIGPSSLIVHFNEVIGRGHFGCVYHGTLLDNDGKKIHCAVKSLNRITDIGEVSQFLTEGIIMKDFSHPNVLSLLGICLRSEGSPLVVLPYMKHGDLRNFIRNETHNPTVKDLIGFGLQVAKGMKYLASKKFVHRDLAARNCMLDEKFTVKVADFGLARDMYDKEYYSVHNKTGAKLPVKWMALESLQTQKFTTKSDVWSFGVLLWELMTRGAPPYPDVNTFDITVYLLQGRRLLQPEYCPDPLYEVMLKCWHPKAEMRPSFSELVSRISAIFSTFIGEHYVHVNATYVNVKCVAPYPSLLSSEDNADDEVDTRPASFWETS

With `CC(=O)N1CCC(n2cc(-c3cnc4[nH]cc(C(C)c5c(Cl)ccc(F)c5Cl)c4c3)cn2)CC1` (centres unmarked) [Example 48, 1-[4-(4-{3-[1-(2,6-Dichloro-3-fluorophenyl)ethyl]-1H-pyrrolo[2,3-b]pyridin-5-yl]-pyrazol-1-yl}-piperidin-1-yl)-ethanone], the 50% inhibitory concentration (IC50) at phosphorylated c-MET and in the experiment with MKN45 cells was ≤ 100 nM in each case.

For the compound `CC(c1c(Cl)ccc(F)c1Cl)c1c[nH]c2ncc(-c3cnn(C4CCN(C(N)=O)CC4)c3)cc12` (centres unmarked) [Example 49, 4-(4-{3-[1-(2,6-Dichloro-3-fluorophenyl)ethyl]-1H-pyrrolo[2,3-b]pyridin-5-yl}-pyrazol-1-yl)-piperidine-1-carboxamide], the IC50 was 100 to 1000 nM on phosphorylated c-MET and ≤ 100 nM in the experiment with MKN45 cells.

With `CC(c1c(Cl)ccc(F)c1Cl)c1c[nH]c2ncc(-c3cnn(C4CCN(S(C)(=O)=O)CC4)c3)cc12` (centres unmarked) [Example 50, 3-[1-(2,6-Dichloro-3-fluorophenyl)-ethyl]-5-[1-(1-methanesulfonyl-piperidin-4-yl)-1H-pyrazol-4-yl]-1H-pyrrolo[2,3-b]pyridine], the results for the IC50 on phosphorylated c-MET and in the experiment on MKN45 cells were ≤ 100 nM and 100 to 1000 nM, respectively.

As to `CNC(=O)N1CCC(n2cc(-c3cnc4[nH]cc(C(C)c5c(Cl)ccc(F)c5Cl)c4c3)cn2)CC1` (centres unmarked) [Example 51, 4-(4-{3-[1-(2,6-Dichloro-3-fluorophenyl)ethyl]-1H-pyrrolo[2,3-b]pyridin-5-yl}-pyrazol-1-yl)-piperidine-1-carboxylic acid methylamide], the 50% inhibitory concentration (IC50) at phosphorylated c-MET and with MKN45 cells was ≤ 100 nM in each case.

On to `CC(c1c(Cl)ccc(F)c1Cl)c1c[nH]c2ncc(-c3cnn(C4CNC4)c3)cc12` (centres unmarked) [Example 53, 5-(1-Azetidin-3-yl-1H-pyrazol-4-yl)-3-[1-(2,6-dichloro-3-fluoro-phenyl)ethyl]-1H-pyrrolo[2,3-b]pyridine], for which the IC50 is ≤ 100 nM on phosphorylated c-MET and 100 to 1000 nM with MKN45 cells.

As to `CC(c1c(Cl)ccc(F)c1Cl)c1c[nH]c2ncc(-c3cnn(C4CN(C=O)C4)c3)cc12` (centres unmarked) [Example 55, 3-(4-{3-[1-(2,6-Dichloro-3-fluorophenyl)ethyl]-1H-pyrrolo[2,3-b]pyridin-5-yl}-pyrazol-1-yl)-azetidine-1-carbaldehyde], the IC50 at phosphorylated c-MET and in the experiment with MKN45 cells was ≤ 100 nM each time.

As to `CC(c1c(Cl)ccc(F)c1Cl)c1c[nH]c2ncc(-c3cnn(C4CN(C(N)=O)C4)c3)cc12` (centres unmarked) [Example 56, 3-(4-{3-[1-(2,6-Dichloro-3-fluorophenyl)ethyl]-1H-pyrrolo[2,3-b]pyridin-5-yl}-pyrazol-1-yl)-azetidine-1-carboxamide], the IC50 at phosphorylated c-MET is ≤ 100 nM; in the experiment on MKN45 cells, 100 to 1000 nM.

On to `CC(c1c(Cl)ccc(F)c1Cl)c1c[nH]c2ncc(-c3cnn(C4CN(S(C)(=O)=O)C4)c3)cc12` (centres unmarked) [Example 57, 3-[1-(2,6-Dichloro-3-fluorophenyl)-ethyl]-5-[1-(1-methanesulfonylazetidin-3-yl)-1H-pyrazol-4-yl]-1H-pyrrolo[2,3-b]pyridine], for which the half-inhibitory concentration (IC50) on phosphorylated c-MET is ≤ 100 nM; in the experiment with MKN45 cells it was 100 to 1000 nM.

With `CC(=O)N1CC(n2cc(-c3cnc4[nH]cc(C(C)c5c(Cl)ccc(F)c5Cl)c4c3)cn2)C1` (centres unmarked) [Example 58, 1-[3-(4-{3-[1-(2,6-Dichloro-3-fluorophenyl)-ethyl]-1H-pyrrolo[2,3-b]pyridin-5-yl}-pyrazol-1-yl)-azetidin-1-yl]-ethanone], the values for the IC50 at phosphorylated c-MET and in the experiment on MKN45 cells were ≤ 100 nM and 100 to 1000 nM, respectively.

In the case of `CC(c1c(Cl)ccc(F)c1Cl)c1c[nH]c2ncc(-c3cnn(C4CN(C(=O)N(C)C)C4)c3)cc12` (centres unmarked) [Example 59, 3-(4-{3-[1-(2,6-Dichloro-3-fluorophenyl)ethyl]-1H-pyrrolo[2,3-b]pyridin-5-yl}-pyrazol-1-yl)-azetidine-1-carboxylic acid dimethylamide], the IC50 at phosphorylated c-MET and in the experiment on MKN45 cells was 100 to 1000 nM each time.

Turning to `CC(c1c(Cl)ccc(F)c1Cl)c1c[nH]c2ncc(-c3cnn(C(C)(C)C(=O)O)c3)cc12` (centres unmarked) [Example 61, 2-(4-{3-[1-(2,6-Dichloro-3-fluorophenyl)ethyl]-1H-pyrrolo[2,3-b]pyridin-5-yl}-pyrazol-1-yl)-2-methylpropionic acid], the 50% inhibitory concentration (IC50) at phosphorylated c-MET and in the experiment on MKN45 cells was 1000 to 10000 nM throughout.

Consider `CNC(=O)C(C)(C)n1cc(-c2cnc3[nH]cc(C(C)c4c(Cl)ccc(F)c4Cl)c3c2)cn1` (centres unmarked) [Example 62, 2-(4-{3-[1-(2,6-Dichloro-3-fluorophenyl)ethyl]-1H-pyrrolo[2,3-b]pyridin-5-yl}-pyrazol-1-yl)-N-methylisobutyramide], for which the half-inhibitory concentration (IC50) on phosphorylated c-MET was ≤ 100 nM; with MKN45 cells, 100 to 1000 nM.

`CC(c1c(Cl)ccc(F)c1Cl)c1c[nH]c2ncc(-c3cnn(C(C)(C)C(=O)N(C)C)c3)cc12` (centres unmarked) [Example 63, 2-(4-{3-[1-(2,6-Dichloro-3-fluorophenyl)ethyl]-1H-pyrrolo[2,3-b]pyridin-5-yl}-pyrazol-1-yl)-N,N-dimethylisobutyramide]: the IC50 at phosphorylated c-MET was ≤ 100 nM; with MKN45 cells it was 100 to 1000 nM.

For `CC(c1c(Cl)ccc(F)c1Cl)c1c[nH]c2ncc(-c3cnn(C(C)(C)C(N)=O)c3)cc12` (centres unmarked) [Example 64, 2-(4-{3-[1-(2,6-Dichloro-3-fluorophenyl)ethyl]-1H-pyrrolo[2,3-b]pyridin-5-yl}-pyrazol-1-yl)-isobutyramide], the IC50 was ≤ 100 nM on phosphorylated c-MET and 100 to 1000 nM with MKN45 cells.

On to `CC(c1c(Cl)ccc(F)c1Cl)c1c[nH]c2ncc(-c3cnn(C(C)(C)CO)c3)cc12` (centres unmarked) [Example 65, 2-(4-{3-[1-(2,6-Dichloro-3-fluorophenyl)ethyl]-1H-pyrrolo[2,3-b]pyridin-5-yl}-pyrazol-1-yl)-2-methylpropan-1-ol], for which the IC50 on phosphorylated c-MET is ≤ 100 nM; in the experiment on MKN45 cells, 100 to 1000 nM.

Take `C[C@H](c1c(Cl)ccc(F)c1Cl)c1c[nH]c2ncc(C3=CCCN(C(N)=O)C3)cc12` [Example 67, 5-{3-[(S)-1-(2,6-Dichloro-3-fluorophenyl)ethyl]-1H-pyrrolo[2,3-b]pyridin-5-yl}-3,6-dihydro-2H-pyridine-1-carboxamide]: the values for the IC50 at phosphorylated c-MET and in the experiment with MKN45 cells were ≤ 100 nM and 100 to 1000 nM, respectively.

In the case of `C[C@H](c1c(Cl)ccc(F)c1Cl)c1c[nH]c2ncc(-c3ccc(C(=O)N4CCNCC4)cc3)cc12` [Example 69, (4-{3-[(S)-1-(2,6-Dichloro-3-fluorophenyl)ethyl]-1H-pyrrolo[2,3-b]pyridin-5-yl}phenyl)piperazin-1-ylmethanone], the IC50 on phosphorylated c-MET was ≤ 100 nM; in the experiment on MKN45 cells it was 100 to 1000 nM.

As to `C[C@H](c1c(Cl)ccc(F)c1Cl)c1c[nH]c2ncc(-c3cnn(C4CCN(C(N)=O)CC4)c3)cc12` [Example 72, 4-(4-{3-[(S)-1-(2,6-Dichloro-3-fluorophenyl)ethyl]-1H-pyrrolo[2,3-b]pyridin-5-yl}-pyrazol-1-yl)-piperidine-1-carboxamide], the IC50 at phosphorylated c-MET and in the experiment on MKN45 cells was ≤ 100 nM each time.

In the case of `C[C@H](c1c(Cl)ccc(F)c1Cl)c1c[nH]c2ncc(-c3cnn(C4CCN(S(C)(=O)=O)CC4)c3)cc12` [Example 73, 3-[(S)-1-(2,6-Dichloro-3-fluorophenyl)ethyl]-5-[1-(1-methane-sulfonylpiperidin-4-yl)-1H-pyrazol-4-yl]-1H-pyrrolo[2,3-b]pyridine], the IC50 at phosphorylated c-MET and with MKN45 cells was ≤ 100 nM throughout.

For the compound `CNC(=O)Cn1cc(-c2cnc3[nH]cc([C@H](C)c4c(Cl)ccc(F)c4Cl)c3c2)cn1` [Example 76, 2-(4-{3-[(S)-1-(2,6-Dichloro-3-fluorophenyl)ethyl]-1H-pyrrolo[2,3-b]-pyridin-5-yl}-pyrazol-1-yl)-N-methylacetamide], the IC50 on phosphorylated c-MET and with MKN45 cells was ≤ 100 nM in each case.

`C[C@H](c1c(Cl)ccc(F)c1Cl)c1c[nH]c2ncc(-c3cnn(CC(N)=O)c3)cc12` [Example 77, 2-(4-{3-[(S)-1-(2,6-Dichloro-3-fluorophenyl)ethyl]-1H-pyrrolo[2,3-b]-pyridin-5-yl}-pyrazol-1-yl)-acetamide]: the IC50 at phosphorylated c-MET and in the experiment on MKN45 cells was ≤ 100 nM throughout.

As for `C[C@H](c1c(Cl)ccc(F)c1Cl)c1c[nH]c2ncc(-c3cnn(CC(=O)N4CCOCC4)c3)cc12` [Example 78, 2-(4-{3-[(S)-1-(2,6-Dichloro-3-fluorophenyl)ethyl]-1H-pyrrolo[2,3-b]pyridin-5-yl}-pyrazol-1-yl)-1-morpholin-4-ylethanone], the IC50 at phosphorylated c-MET and with MKN45 cells was ≤ 100 nM each time.

Source of the values: patent US8592448B2 (OSI Pharmaceuticals, LLC, priority 2008, dated 2013).
